Data taken from US5349070A, “Salicylic acid-maltol conjugates” (priority 1993, dated 1994).

What was measured:
[1] = tested on: Malondialdehyde (MDA) Generation in Mouse Liver Homogenate; experiment: Inhibition of malondialdehyde (MDA) generation (antioxidant activity), in vitro; format: biochemical, mouse (male ICR)
Method: Animal: male ICR mouse weighing 20-25 g
1. Maltol (10% DMF saline)
2. Aspirin (10% DMF saline).
TBA reagents: Thiobarbituric acid (0.3%) and SDS (0.4%) were dissolved in 7.5% acetate buffer (pH 4.0)
Antioxidant activities were determined following the method of Okawa et al. (Biochemistry (Japan) 1977), 49(8), 829). Mouse livers were homogenized with ten volumes of saline. To 10 ml of homogenate was added 10 ml of the sample solution, and the mixture was incubated at 37° C. for 3 hrs. Then 3.6 ml of TBA reagents were added to the mixture and the resulting mixture was heated at 98° C. for 1 hr. After the temperature was reduced to 24° C., the reaction mixture was extracted with 2 ml of butanol and the butanol phase was separated by centrifugation. The absorbance at 532 nm of the butanol phase was measured.

[2] = Gastric ulceration experiment; format: in vivo, rat (male Sprague Dawley); conditions: for Ulcer Index: mean ± S.E.; for gastric ulceration: compound A versus aspirin at four times lower dose
Method: Animal: Male Sprague Dawley rats weighing 160-210 g (6 rats as a group).
Reference: Aspirin (200 mg/kg in 1% CMC).
(§1) Medication: Oral administration.
Rats were deprived of food but allowed free access to water for 24 hrs (water was removed 2 hrs before experiments). Samples suspended in 1% CMC solution […]. The stomachs were then inflated by injecting 10 ml of 2% formalin through the esophageal orifice and immersed in 2% formalin for 10 min. Subsequently, the stomachs were incised along the greater curvature and the length of each leison in the glandular portion was measured. The sum of the lengths (mm) of all lesions for each rat was used as the ulcer index.

Bleeding time = format: in vivo; conditions: for Bleeding Time: in s (unit assumed); for percent increment of bleeding time: P < 0.05
Method: To the experimental groups, equivalent doses of compound A and aspirin were administered separately for 10 days.

[3] = background statement; cited from earlier work
Typhoid vaccine pyrogen = experiment: Antipyretic activity (typhoid vaccine pyrogen, rectal temperature); format: in vivo, mouse (male ICR); conditions: oral, mouse, FIG. 3; compound A 160, 500 mg/kg, aspirin 100 mg/kg
Method: Animal: Male ICR mouse weighing 17-21 g (5 mice as a group).
Sample: Compound A (160 mg/kg, 500 mg/kg in 1% CMC).
Reference: Aspirin (100 mg/kg in 1% CMC).
Pyrogen: Typhoid vaccine (0.1 ml/mouse, i.p.).
Antipyretic activities were measured according to Winter et al. with some modifications (Winter, C. A. et al. (1963), J. Pharmacol Exptl. Therap., 141, […]). Rectal temperature was measured using digitalized thermometer inserted 3 cm deep at one hr intervals. Typhoid vaccine was injected to mouse i.p. at zero time. After 2 hrs, aspirin and sample (compound in Example 1) were orally given to mouse.

[4] = tested on: Carrageenin-induced edema; experiment: Antiinflammatory activity by Carrageenin-induced edema test; format: in vivo, rat (male Sprague Dawley); conditions: for % Increment of Edema: mean ± S.E.
Method: Animal: Male Sprague Dawley rats weighing approx. 170 g (5 rats as a group). […]
as §1
The inhibitions of Carrageenin-induced edema by compound A and aspirin was measured according to Winster et al. (Winter, C. A., Risley, E. A. and Nuss, G. W. (1963), J: Pharmaco. Exptl. Therap., 141, 369). Samples were administered orally at 6 hrs and 30 min before Carrageenin injection. Edema was induced with subcutaneous injection of 0.05 ml of 1% Carrageenin in saline solution in a hind paw of rat. Then, the volume of edema was measured at time intervals.

BSA = experiment: Protein stabilizing activity (heat denaturation of BSA); format: biochemical; conditions: 1×10^-3 M in 5% DMF; data not shown
Method: Sample: Compound A (1×10^-3 M in 5% DMF solution
The protein stabilizng activity of the sample was analyzed as described by Mizushima (Mizushima, Y. (1965), Lancet, 1, 169). Briefly, 2 ml of 0.75% BSA in 0.1M phosphate-buffered saline (pH 5.3) was mixed with 1 ml of appropriately diluted test sample solution. After standing at room temperature for 15 min, the reaction mixture was incubated at 66.5°C. and 0° C. for 3 min and 15 min, respectively. The degree of heat denaturation of BSA was estimated by the turbidity of colloidal precipitate, whose absorbance at 570 nm was measured.

platelets = experiment: Antithrombotic activity (thrombin-induced platelet aggregation); format: cell-based, rat (male Sprague Dawley); conditions: 1×10^-3 M
Method: Animal: Male Sprague Dawley rate weighing 180-250 g.
Sample: Compound A (1×10^-3 M) in 5% DMF solution.
Rats were anaesthetized with ether and 9 volumes of blood were collected by heart puncture with 1 volume of 3.12% sodium citrate. Combined blood samples were centrifuged at 1,200 rpm for 20 min at 4° C. to obtain platelet-rich plasma. Following centrifugation at 3,000 rpm for 10 min at 4° C., the resulting precipitates (platelets) were resuspended in 0.01M phosphate-buffered saline (pH 7.4). To 1 ml of this solution was added 0.1 ml of the sample solution. After 30 min incubation at 37° C., 10 units of thrombin was added and the reaction mixture was incubated for 1 hr.

Acute toxicity test = format: in vivo; conditions: oral, mouse
[5] = General activities and side effects stated in the description; conditions: concluding statement
[6] = final concentration 2.5 × 10^-3 M
[7] = final concentration 2.5 × 10^-4 M
[8] = final concentration 6.3 × 10^-5 M
[9] = final concentration 1.3 × 10^-5 M

## CC(=O)Oc1ccccc1C(=O)O [Aspirin, Acetylsalicylic acid, reference compound]
[1]; [6]
  % Inhibition of Malondialdehyde (MDA) Generation: 8.4 ± 4.2%
[1]; [7]
  % Inhibition of Malondialdehyde (MDA) Generation: 0.8 ± 0.4%
[1]; [8]
  % Inhibition of Malondialdehyde (MDA) Generation: 4.6 ± 2.3%
[2]; 200 mg/kg P.O.
  number of rats that exhibited gastric ulcer: 5/5
  Ulcer Index: 29.3 ± 6.15 mm
[2]
  gastric ulceration: caused ulceration
Bleeding time; 15 mg/kg P.O., day 2
  Bleeding Time: 353.5 ± 74.7
Bleeding time; 15 mg/kg P.O., day 4
  Bleeding Time: 372.7 ± 50.1
Bleeding time; 15 mg/kg P.O., day 6
  Bleeding Time: 516.6 ± 119.4
Bleeding time; 15 mg/kg P.O., day 8
  Bleeding Time: 493.6 ± 86.6
Bleeding time; 15 mg/kg P.O., day 10
  Bleeding Time: 441.9 ± 46.2
[3]
  gastric ulceration induced by aspirin: induces gastric ulceration
  pharmacological activities of aspirin: antipyretic, antianalgesic, antioxidant and antithromobotic activities

## CC(=O)Oc1ccccc1C(=O)Oc1c(C)occc1=O [Compound A, maltol-acetylsalicylate ester]
[1]; [9]
  % Inhibition of Malondialdehyde (MDA) Generation: 4.3 ± 2.1%
[1]; [6]
  % Inhibition of Malondialdehyde (MDA) Generation: 91.9 ± 4.1%
[1]; [7]
  % Inhibition of Malondialdehyde (MDA) Generation: 58.9 ± 7.0%
[1]; [8]
  % Inhibition of Malondialdehyde (MDA) Generation: 2.3 ± 1.1%
Typhoid vaccine pyrogen
  antipyretic potency compared to aspirin: five times lower than that of aspirin
[4]; 300 mg/kg P.O., 0.5 hr
  % Increment of Edema: 46.5 ± 13.98%
[4]; 300 mg/kg P.O., 1.5 hr
  % Increment of Edema: 51.2 ± 9.47%
[4]; 300 mg/kg P.O., 2.5 hr
  % Increment of Edema: 56.1 ± 11.50%
[4]; 300 mg/kg P.O., 3.5 hr
  % Increment of Edema: 69.4 ± 13.89%
[4]; 300 mg/kg P.O., 4.5 hr
  % Increment of Edema: 81.9 ± 9.96%
[4]; 400 mg/kg P.O., 0.5 hr
  % Increment of Edema: 20.3 ± 6.85%
[4]; 400 mg/kg P.O., 1.5 hr
  % Increment of Edema: 33.8 ± 3.19%
[4]; 400 mg/kg P.O., 2.5 hr
  % Increment of Edema: 50.2 ± 6.43%
[4]; 400 mg/kg P.O., 3.5 hr
  % Increment of Edema: 58.4 ± 6.09%
[4]; 400 mg/kg P.O., 4.5 hr
  % Increment of Edema: 66.2 ± 8.52%
[4]; doses of 300 and 450 mg/kg, oral
  anti-inflammatory effect: no anti-inflammatory effect
BSA
  protein stabilizing activity: did not contain protein stabilizing activity
platelets
  antithrombotic activity: showed antithrombotic activity
platelets; 10 units thrombin, naked eye, 1 hr
  platelet aggregation: platelet aggregation was not observed
[2]; 100 mg/kg P.O.
  Ulcer Index: 0 mm
[2]; 200 mg/kg P.O.
  Ulcer Index: 0 mm
[2]; 800 mg/kg P.O.
  number of rats that exhibited gastric ulcer: 1/6
  Ulcer Index: 0.7 ± 0.61 mm
[2]; at 5 times higher dose than aspirin
  gastric ulcer: did not cause gastric ulcer
[2]
  gastric ulceration: did not cause gastric ulceration
Bleeding time; 15 mg/kg P.O., day 2
  Bleeding Time: 339.6 ± 53.9
Bleeding time; 15 mg/kg P.O., day 4
  Bleeding Time: 396.9 ± 56.0
Bleeding time; 15 mg/kg P.O., day 6
  Bleeding Time: 429.4 ± 50.6
Bleeding time; 15 mg/kg P.O., day 8
  Bleeding Time: 518.3 ± 102.8
Bleeding time; 15 mg/kg P.O., day 10
  percent increment of bleeding time: 50%
  Bleeding Time: 472.1 ± 57.4
Bleeding time; 45 mg/kg P.O., day 10
  percent increment of bleeding time: 48%
  Bleeding Time: 467.8 ± 55.9
Bleeding time; administered for 10 days
  prolongation of the bleeding time: 50%
Acute toxicity test; in vivo
  LD50: 2140 mg/kg
Acute toxicity test
  toxicity: little toxicity
[5]
  side effects: little side effects

## Cc1occc(=O)c1O [Maltol, maltol]
[1]; [9]
  % Inhibition of Malondialdehyde (MDA) Generation: 5.2 ± 2.6%
[1]; [6]
  % Inhibition of Malondialdehyde (MDA) Generation: 99.4 ± 0.3%
[1]; [7]
  % Inhibition of Malondialdehyde (MDA) Generation: 94.8 ± 2.6%
[1]; [8]
  % Inhibition of Malondialdehyde (MDA) Generation: 13.4 ± 6.7%

## CCCCC1C(=O)N(c2ccccc2)N(c2ccccc2)C1=O [Phenylbutazone, reference compound]
[4]; 100 mg/kg P.O., 0.5 hr
  % Increment of Edema: 11.8 ± 6.26%
[4]; 100 mg/kg P.O., 1.5 hr
  % Increment of Edema: 20.9 ± 6.88%
[4]; 100 mg/kg P.O., 2.5 hr
  % Increment of Edema: 21.9 ± 9.22%
[4]; 100 mg/kg P.O., 3.5 hr
  % Increment of Edema: 36.2 ± 14.45%
